Experimental data taken from US11910794B2, “Solutions and methods for long-term pollen storage” (Monsanto Technology LLC, priority 2021, dated 2024).
Read-outs that look alike come from different tables or passages of the source.

Legend:
corn pollen = assay: Pollen toxicity: germination of corn pollen after incubation in pollen storage solutions; assay type: cell-based, corn (Zea mays); conditions: 1.0M sucrose, 10 mM MES, 0.5M, 1.0M or 1.5M cryoprotectant; 15 minutes at room temperature or 4° C.; germination plates; FIG. 1
Procedure: Pollen storage solutions comprising 1.0M sucrose, 10 mM MES, and 0.5M, 1.0M, or 1.5M of cryoprotectant were evaluated for pollen toxicity. Briefly, corn pollen was suspended in each pollen storage solution at either room temperature or 4° C. and incubated for 15 minutes. The pollen storage solutions were applied to standard germination plates using an airbrush and images of the plates were obtained to evaluate germination. A 1.0M solution of sucrose was used as the positive control.

pollen [1] = conditions: not told
Procedure: (§1) As used herein the term “impermeable” refers to a state where an isotonic solution of the solute when first mixed with pollen produces less than about 10% pollen lysis over the first 4 hours that the pollen is in contact with the solution. As used herein the term “permeable” refers to a state where an isotonic solution of the cryoprotectant when first mixed with pollen produces greater than 50% pollen lysis over the first 4 hours that the pollen is in contact with the solution.
(§2) The pollen permeability of numerous cryoprotectants was evaluated to initially identify suitable candidates for use in the pollen storage solution. Suitable cryoprotectants will be permeable to the pollen in the solution. Suitable solutes will maintain the tonicity of the pollen storage solution at a concentration between about 0.5M and about 3.0M. […] Pollen storage solutions comprising 1.0M sucrose, 10 mM MES, and 0.5M, 1.0M, or 1.5M of cryoprotectant were evaluated for pollen toxicity.

pollen [2] = assay: Pollen permeability of cryoprotectants; conditions: permeability test of cryoprotectants
Procedure: as §1, §2

## C[S+](C)[O-] [DMSO, dimethyl sulfoxide]
Corn pollen
  germination rates: highest germination rates
Pollen [1]
  pollen permeability of cryoprotectant: among the most permeable

## OCCO [ethylene glycol]
Corn pollen
  germination rates: highest germination rates
Pollen [2]
  pollen permeability of cryoprotectant: among the most permeable
